This assay has as its target T1, recombinant human Itk kinase domain fused with GST (Homo sapiens, UniProt Q08881).
T1 construct: recombinant human Itk kinase domain fused with GST (Glutathione S-Transferase); GST (Glutathione S-Transferase); made in house; host or cells: High Five insect cells
T1 sequence (Q08881 363-615 limits assumed): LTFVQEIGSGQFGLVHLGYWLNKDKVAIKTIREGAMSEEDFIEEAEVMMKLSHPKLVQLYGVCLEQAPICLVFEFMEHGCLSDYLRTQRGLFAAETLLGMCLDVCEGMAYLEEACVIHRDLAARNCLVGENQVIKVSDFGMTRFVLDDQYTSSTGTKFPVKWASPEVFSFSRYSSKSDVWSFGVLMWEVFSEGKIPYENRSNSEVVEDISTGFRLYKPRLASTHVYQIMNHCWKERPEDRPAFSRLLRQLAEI
In words: Itk LANCE TRF Assay. The format is biochemical. To be noted: 2 μM biotinylated peptide substrate, 50 μM ATP, 50 minutes RT, read-out: Inhibition of Kinase Itk (IC50 μM). The protocol: The Itk kinase assay utilized recombinant human Itk kinase domain fused with GST (Glutathione S-Transferase). The protein was expressed in High five insect cells, purified in one step on an affinity chromatography glutathione column and stored in 50 mM Tris/HCl (pH 7.6), 150 mM NaCl, 5% (w/v) mannitol, 1 mM DTT, 30% glycerol at −70° C. The kinase substrate used in the assay was a biotinylated peptide derived from the Src-optimal substrate (Nair et al, J. Med. Chem., 38: 4276, 1995; biotin-AEEEIYGEFEAKKKK).
The assay additions were as follows: Test compounds (or controls; 1 μL in 100% DMSO) were added to black 96-well flat-bottomed plates (Greiner 655076) followed by 20 μL Itk in assay buffer and the reaction was started by adding 20 μL ATP and peptide substrate in assay buffer. The assay buffer constitution during, phosphorylation was: 50 mM HEPES (pH 6.8), 10 mM MgCl2, 0.015% Brij 35, 1 mM DTT, 10% glycerol, 160 ng/well Itk, 2 μM peptide substrate and 50 μM ATP. The assay was stopped after 50 minutes (RT) by adding 150 μL ice-cold Stop solution (50 mM Tris/HCl, pH 7.5, 10 mM EDTA, 0.9% NaCl and 0.1% BSA) together with LANCE reagents (2 nM PT66-Eu^3+, Wallac AD0069 and 5 μg/mL Streptavidin-APC, Wallac AD0059. Both concentrations were final in stopped assay solution). The plates were measured on a Wallac 1420 Victor 2 instrument with TRF settings after 1 h incubation, and the ratio (665 signal/615 signal)*10000 was used to calculate the inhibition values. IC50 values were determined using XLfit.

Structures are written as SMILES. Where a name gives a salt, the structure may show the parent alone.

In general, IC50 refers to the point on the concentration scale where inhibition reaches its midpoint. In the case of `Brc1cnc2[nH]c(-c3ccc(OCCNc4nccs4)cc3)nc2c1` [Example 104, N-{2-[4-(6-Bromo-3H-imidazo[4,5-b]pyridin-2-yl)phenoxy]ethyl}-1,3-thiazol-2-amine bis(trifluoroacetate)], the IC50 was 0.24 µM.
Then `COc1ccc(S(=O)(=O)Nc2ccc(-c3nc4ncc(Cl)c(Cl)c4[nH]3)cc2)cc1` [Example 267, N-[4-(6,7-Dichloro-1H-imidazo[4,5-b]pyridin-2-yl)phenyl]-4-methoxybenzenesulfonamide], with 0.26 µM; and `OCCN1CCN(CC(O)COc2ccc(-c3nc4cc(Br)cnc4[nH]3)cc2)CC1` (centres unmarked) [Example 162, 1-[4-(6-Bromo-3H-imidazo[4,5-b]pyridin-2-yl)phenoxy]-3-[4-(2-hydroxyethyl)piperazin-1-yl]propan-2-ol bis(trifluoroacetate)], with 0.53 µM.
`COc1ccc(CNc2ccc(-c3nc4cc(Br)cnc4[nH]3)cc2)cc1` [Example 180, N-[4-(6-Bromo-3H-imidazo[4,5-b]pyridin-2-yl)phenyl]-N-(4-methoxybenzyl)amine bis(trifluoroacetate)]: the IC50 was 0.29 µM.
For `Clc1cnc2[nH]c(-c3ccc(OCCN4CCOCC4)cc3)nc2c1N1CCCC1` [Example 236, 6-Chloro-2-[4-(2-morpholin-4-ylethoxy)phenyl]-7-pyrrolidin-1-yl-3H-imidazo[4,5-b]pyridine] the value was 0.41 µM; for `COc1cc(-c2nc3cc(Br)cnc3[nH]2)ccc1OCc1ccccc1` [Example 29, 2-[4-(Benzyloxy)-3-methoxyphenyl]-6-bromo-3H-imidazo[4,5-b]pyridine trifluoroacetate], 0.31 µM; for `Cc1ccc(-c2c(Cl)cnc3[nH]c(-c4ccc(OCCN5CCOCC5)cc4)nc23)cc1` [Example 238, 6-Chloro-7-(4-methylphenyl)-2-[4-(2-morpholin-4-ylethoxy)phenyl]-3H-imidazo[4,5-b]pyridine], 0.35 µM.
Then `OC1CCN(CC(O)COc2ccc(-c3nc4cc(Br)cnc4[nH]3)cc2)C1` (centres unmarked) [Example 124, 1-{3-[4-(6-Bromo-3H-imidazo[4,5-b]pyridin-2-yl)phenoxy]-2-hydroxypropyl}pyrrolidin-3-ol], with 0.43 µM.

Values taken from patent publication US7410966B2, “Use of and some novel imidazopyridines” (AstraZeneca AB, priority 2002, dated 2008).
